Where “and” joins values, the source holds several entries; their conditions need not be identical. Identical values can stand only once.
Columns and labels:
[1] = set-up: method as in PMID 34318678; conditions: intracellular distribution not considered; cited from earlier work
[2] = system: subcutaneous MDA-MB-231 xenografts; experiment: Ex vivo biodistribution by gamma counter; format: in vivo, NOD/SCID mice
Protocol: Female NOD/SCID mice at 5–6 weeks of age (Janvier, France) was used for developing subcutaneous TNBC tumour. Animals were housed in 20–24 °C in a 12 h day light cycle. For each mouse, 3 × 10^6 MDA-MB-231 cells were suspended in a 1:1 (volume) mixture of Culture media: Matrigel® matrix (Corning®, Product No: 356237). Mice were inoculated with this cell suspension (max 200 µl) subcutaneously in the right flank. Tumour growth was monitored daily using calliper measurements. Tumour volume was calculated daily according to the formula Tumourvolume=TumourLength×Tumourbreadth^2×0.52
Upon reaching of a tumour volume of 500 mm^3, animals were proceeded for experiments. For biodistribution study animals were administered with [^123I]PARPi-01 (n = 3). For therapy studies animals were randomized for control (n = 10) or [^125I]PARPi-01 administration (n = 10). Randomisation was done based on equivalent distribution of tumour volumes. In addition to the daily calliper measurements image analysis of CT based tumour volumes was blinded to avoid bias. Animals were sacrificed upon completion of biodistribution study or upon reaching a humane end point for the therapy study. Humane end point is determined as reaching of either of the following conditions: 15 mm tumour diameter, 1500 mm^3 tumour volume, or development of ulcers/ascites.
For biodistribution, animals imaged at 4 h p.i. were killed 24 h p.i., while the ones scanned 24 h p.i. were killed 5 days p.i.. Subsequently, organs were excised, weighed, and assayed for radioactivity in a gamma counter. Mean tumour and organ uptake was determined from decay-corrected tissue radioactivity normalized to injected dose and tissue sample weight (%ID/g tissue wet weight).

[3] = system: subcutaneous MDA-MB-231 tumours; experiment: Small animal SPECT/CT imaging; format: in vivo, NOD/SCID mice
Protocol: Imaging was performed with a small animal SPECT/CT system (X-Cube and γ-Cube, Molecubes, Gent, Belgium). Mice bearing subcutaneous MDA-MB-231 tumours upon reaching tumour volume of 500 mm^3 were intravenously administered with [^123I]PARPi-01 (9.3 ± 2.7 MBq) via lateral tail-vein using a catheter under 1.5 to 2.5% isoflurane anaesthesia in oxygen at 0.8 L/min. [^123I]PARPi-01 was prepared by diluting the tracer in 0.9% NaCl to a total volume of 100 μL. Administered dose was calculated by subtraction of decay-corrected syringe activity post-injection from pre-injection activity. The mice were scanned either at 4 h or at 24 h post injection (p.i.). The CT acquisition settings were as follows: default high resolution protocol, 440 uA, 50 kVp, 32 ms exposure time, and 1080° rotation in a spiral mode with 960 exposures/360°; the duration of each CT scan was 5 min. A SPECT scan was initiated at the end of each CT scan. The SPECT acquisition settings were as follows: 7-headed camera equipped with a general-purpose collimator with 28 pinholes (i.e., 0.75 mm apertures and a radius of rotation of 20 mm), helical scan with 82 bed positions; the total duration of each SPECT scan was 30 min. Both CT and SPECT axial fields of view were selected at 105 mm. During the scans, the isoflurane concentration was adapted to achieve a respiratory rate between 75 and 50 breaths per minute. […]

[4] = set-up: method as in PMID 29630818; conditions: cited from earlier work
cytochrome P450 (CYP450) = system: cytochrome P450 (CYP450); set-up: method as in PMID 28736501, PMID 29717476; conditions: cited from earlier work
[5] = set-up: method as in PMID 27169564; conditions: cited from earlier work
[6] = 24 h p.i., i.v., decay-corrected, n = 3

Compound: O=C(c1cccc([123I])c1)N1CCN(C(=O)c2cc(Cc3n[nH]c(=O)c4ccccc34)ccc2F)CC1 [[^123I]MAPi]
- estimated absorbed dose in liver [1]: 0.0044 Gy/MBq
- estimated absorbed dose in thyroid [1]: 0.0041 Gy/MBq

Compound: O=C(c1ccc([123I])cc1)N1CCN(C(=O)c2cc(Cc3n[nH]c(=O)c4ccccc34)ccc2F)CC1 [[^123I]PARPi-01]
- Tumour: Blood Ratio ([2]; 24 h p.i.): 1.3
- liver uptake [2, 6]: 2.5 %ID/g and 2.49 ± 0.6 %ID/g
- tumour uptake [2, 6]: 0.2 %ID/g
- activity in organs of animals sacrificed at 5 d p.i. ([2]; 5 d p.i.): no quantifiable activity
- clearance pathway ([3]; 4 h and 24 h p.i.): hepatobiliary clearance
- deiodination in vivo (thyroid uptake) ([3]; 24 h p.i.): strong deiodination

Compound: O=C(c1cc(Cc2n[nH]c(=O)c3ccccc23)ccc1F)N1CCN(C(=O)C2CC2)CC1 [Olaparib]
- Log Poct [4]: 1.95
- fraction metabolised in liver by CYP450 (cytochrome P450 (CYP450)): 84%
- dose limiting toxicities [5]: anaemia, thrombocytopenia, and neutropenia

— paper PMC9474773, “PARP targeted Auger emitter therapy with [^125I]PARPi-01 for triple-negative breast cancer” (EJNMMI Research, 2022)
